Experimental data from patent US5008419A, “Novel platinum complex” (SS Pharmaceutical Co., Ltd., priority 1988, dated 1991).

Legend:
L1210 leukemia cells = assay: Antitumor activity against L1210 leukemia in CDF1 mice (increase life span, survived ratio); type: in vivo, CDF1 male mice; conditions: for ILS (increase life span) / Survived ratio: i.p., once a day for 5 days; for ILS50 (50% increase life span dose): mouse, in vivo, ip, 43200 min; for Survived ratio: 30 days observation
Protocol: CDF1 male mice (age: 6 weeks) consisting of 6 per each group were used to the test. 1×10^5 L1210 leukemia cells were intraperitoneally inoculated into each mouse. Test compounds dissolved in a solution of 0.5% CMC-Na in physiological saline were intraperitoneally administered to mice once a day for 5 consecutive days from the next day of the inoculation. A 0.5% CMC-Na solution in physiological saline was administered to the control group. […] All of these compounds are known compounds and Comparative Compounds a-c were disclosed in U.S. Pat. No. 4,169,846.
Observation was continued for consecutive 30 days after the administration. Increase life span (ILS) was determined according to the following equation: […]
wherein T is the mean survival days of the treated groups, and C is the mean survival days of the control groups.
(§1) Therapeutic index of compounds of this invention was determined according to the following equation. [formula]

Water solubility = type: physicochemical
50% lethal dose (LD50) = conditions: in vivo
Protocol: as §1

| Molecule | ILS (increase life span) (L1210 leukemia cells; 0.5 mg/kg) [%] | ILS (increase life span) (L1210 leukemia cells; 1.0 mg/kg) [%] | ILS (increase life span) (L1210 leukemia cells; 2.0 mg/kg) [%] | ILS (increase life span) (L1210 leukemia cells; 4.0 mg/kg) [%] | ILS50 (50% increase life span dose) (L1210 leukemia cells) [mg/kg] | Survived ratio (L1210 leukemia cells; 2.0 mg/kg) [%] | Survived ratio (L1210 leukemia cells; 4.0 mg/kg) [%] | ILS (increase life span) (L1210 leukemia cells; 8.0 mg/kg) | Survived ratio (L1210 leukemia cells; 8.0 mg/kg) [%] | ILS (increase life span) (L1210 leukemia cells; 16.0 mg/kg) | Survived ratio (L1210 leukemia cells; 16.0 mg/kg) [%] | ILS (increase life span) (L1210 leukemia cells; 32.0 mg/kg) | Survived ratio (L1210 leukemia cells; 32.0 mg/kg) [%] | Water solubility (Water solubility) [mg/mL] | LD50 (50% lethal dose) (50% lethal dose (LD50)) [mg/kg] | ILS (increase life span) (L1210 leukemia cells; 64.0 mg/kg) | Survived ratio (L1210 leukemia cells; 64.0 mg/kg) [%] | ILS (increase life span) (L1210 leukemia cells; 128.0 mg/kg) [%] | Survived ratio (L1210 leukemia cells; 128.0 mg/kg) [%] |
| --- | --- | --- | --- | --- | --- | --- | --- | --- | --- | --- | --- | --- | --- | --- | --- | --- | --- | --- | --- |
| N.N.[Cl][Pt][Cl] [Cisplatin] | 19 | 33 | 75 | 88 | 1.3 |  |  |  |  |  |  |  |  |  |  |  |  |  |  |
| (trans-dl-1,2-diaminocyclohexane) dimethylmalonatoplatinum (II) [Compound No. 1] |  |  | 40 | 49 | 3.4 | 0 | 0 | above 136% | 17 | 112% | 0 | 130% | 0 | 8 | 140.0 |  |  |  |  |
| (trans-dl-1,2-diaminocyclohexane) diethylmalonatoplatinum (II) [Compound No. 2] |  |  | 43 | 61 | 2.7 | 0 | 0 | above 135% | 33 | above 124% | 17 | above 168% | 33 | 10 | 140.0 |  |  |  |  |
| (trans-dl-1,2-diaminocyclohexane)-malonatoplatinum (II) [Comparative Compound a] |  |  |  | 35 | 7.1 |  | 0 | 49% | 0 | 82% | 0 | 94% | 17 | 0.5 | 244.9 | above 108% | 17 |  |  |
| N.N.O=C([O-])C1(C(=O)[O-])CCC1.[Pt+2] [Carboplatin] |  |  |  |  | 31.2 |  |  | 27% | 0 | 29% | 0 | 43% | 0 |  | 200.0 | 70% | 0 | 25 | 0 |
| CC1C(=O)[O][Pt]2([NH]C3CCCCC3[NH]2)[O]C1=O (racemic) [Comparative Compound b, (trans-dl-1,2-diaminocyclohexane)methylmalonatoplatinum (II)] |  |  |  | 17 | 14.9 |  |  | 27% |  | 43% |  | 79% |  |  | 312.6 |  |  |  |  |
| CCC1C(=O)[O][Pt]2([NH]C3CCCCC3[NH]2)[O]C1=O (racemic) [Comparative Compound c, (trans-dl-1,2-diaminocyclohexane)ethylmalonatoplatinum (II)] |  |  |  | 27 | 14.2 |  |  | 31% |  | 52% |  | 69% |  |  | 244.9 |  |  |  |  |
